{
  "source": "paper PMC8602401",
  "about": "(Scientific Reports, 2021)",
  "key": {"[1]": {"set-up": "method as in PMID 30429357", "details": "oral semaglutide in dogs; cited from earlier work"}, "FaSSIF/pancreatin": {"test_system": "FaSSIF/pancreatin", "experiment": "Fasted-state simulated intestinal fluid/pancreatin assay", "type": "in vitro ADME", "details": "FaSSIF/USP pancreatin; analytical RP-HPLC", "experimental": "Fresh FaSSIF and USP Pancreatin (FaSSIF/p; Sigma-Aldrich) was prepared according to Galia et al[55]. and used immediately. Peptides were dissolved in pre-warmed FaSSIF before addition of pre-warmed FaSSIF/pancreatin with agitation. Samples were analyzed by analytical RP-HPLC to determine remaining intact peptide by area under the curve."}, "human plasma protein": {"test_system": "human plasma protein", "experiment": "EScalate equilibrium shift assay, human plasma", "type": "in vitro ADME", "details": "EScalate equilibrium shift assay", "experimental": "(§1) Binding of peptides to human plasma proteins was determined by the EScalate equilibrium shift assay (Sovicell, Leipzig, Germany), using five dilutions of plasma in phosphate buffered saline and an assumed binding protein concentration of 600 µM. Samples were incubated for 1 h at room temperature then centrifuged to remove the HSA-coated beads. Supernatant samples were analyzed using HPLC (3 µm Phenomenex Aeris Widepore XB-C18 stationary phase) coupled to an electrospray ionization quadrupole time-of-flight mass spectrometer in high resolution accurate mass mode (Agilent, Santa Clara, CA, USA). Unbound fractions were calculated from the concentration-dependent shift in binding equilibrium according to fu=1/1+P/KDPlasma , where P is the concentration of the binding protein in plasma and KDPlasma is the dissociation constant of the compound from plasma proteins in solution."}, "[2]": {"experiment": "Bioavailability after intraduodenal administration with permeation enhancers in rats", "type": "in vivo, rat", "details": "single intraduodenal administration with permeation enhancers (NaCDC and PG), n = 4 per group", "experimental": "Male Sprague Dawley rats (Charles River, Shrewsbury, MA, USA) weighing 250–275 g were housed with ad libitum access to standard chow and water. Test peptides were administered via either an intravenous or a duodenal catheter (4 rats per group) after overnight fasting, and food was returned following 4 h blood collection. Blood was collected via a jugular vein catheter at − 5, 15 and 30 min and 1, 2, 4, 8 and 24 h after intravenous dosing, or for intraduodenal groups at 15 min predose and 0.5, 1, 2, 4, 8, 24 and 48 h postdose. Blood was collected in K2EDTA tubes and kept on wet ice prior to 10 min centrifugation (3000 × g) at 5 °C ± 3 °C. Plasma samples were stored at − 70 °C until analysis.\nFifty or seventy μL aliquots of K2EDTA plasma samples were precipitated with 75% acetonitrile (Sigma-Aldrich) in water (J.T. Baker, Phillipsburg, NJ, USA) (v/v) and centrifuged at 2000 × g. The supernatant was dried under nitrogen at 60 °C, then cooled. Samples were reconstituted in 20% acetonitrile in water (v/v). […] Gradient separation was performed with water and 0.2% formic acid (Thermo Fisher Scientific, Waltham, MA, USA) as mobile phase A, and acetonitrile with 0.2% formic acid as mobile phase B. The method was qualified for the quantification range of 1–1000 ng/mL with accuracy and precision of ± 20%, except for at the lower limit of quantification when the accuracy and precision were ± 25%. Plasma concentrations were subject to noncompartmental analysis consistent with the route of administration using Phoenix WinNonlin (version 7.0, Certara, Princeton, NJ, USA)."}, "dog plasma protein": {"test_system": "dog plasma protein", "experiment": "EScalate equilibrium shift assay, dog plasma", "type": "in vitro ADME"}, "rat plasma protein": {"test_system": "rat plasma protein", "experiment": "EScalate equilibrium shift assay, rat plasma", "type": "in vitro ADME", "details": "EScalate equilibrium shift assay"}, "[3]": {"experiment": "Pharmacokinetics of oral tablets in dogs", "type": "in vivo", "details": "oral tablets 20 mg/dog, semaglutide: 300 mg SNAC, uncoated, MEDI7219: 100 mg NaCDC and 200 mg PG, pH 5.5 enteric, arithmetic mean (% CV)"}, "[4]": {"details": "oral semaglutide with SNAC; cited from earlier work", "description": "Previous approaches to engineering peptide therapeutics include substitution with unnatural amino acids to protect proteolytically vulnerable sites, and lipidation to promote reversible serum protein binding and reduced renal clearance[40]–[42]. […] Ala[8] is replaced with artificial α-methyl-L-alanine to protect the peptide against serum DPP-IV and the peptide is mono-lipidated at Lys[26],[43]. Despite these modifications, semaglutide is still susceptible to rapid proteolytic degradation in th ..."}, "monkey plasma protein": {"test_system": "monkey plasma protein", "experiment": "EScalate equilibrium shift assay, monkey plasma", "type": "in vitro ADME", "details": "EScalate equilibrium shift assay", "experimental": "[The procedure below names another species; the source lists this species under the same test.] as §1"}},
  "data": [
    {"smiles": "CC[C@H](C)[C@H](NC(=O)[C@H](Cc1ccccc1)NC(=O)[C@H](CCC(=O)O)NC(=O)[C@H](CCCCNC(=O)COCCOCCNC(=O)COCCOCCNC(=O)CC[C@H](NC(=O)CCCCCCCCCCCCCCCCC(=O)O)C(=O)O)NC(=O)[C@H](C)NC(=O)[C@H](C)NC(=O)[C@H](CCC(N)=O)NC(=O)CNC(=O)[C@H](CCC(=O)O)NC(=O)[C@H](CC(C)C)NC(=O)[C@H](Cc1ccc(O)cc1)NC(=O)[C@H](CO)NC(=O)[C@H](CO)NC(=O)[C@@H](NC(=O)[C@H](CC(=O)O)NC(=O)[C@H](CO)NC(=O)[C@@H](NC(=O)[C@H](Cc1ccccc1)NC(=O)[C@@H](NC(=O)CNC(=O)[C@H](CCC(=O)O)NC(=O)C(C)(C)NC(=O)[C@@H](N)Cc1cnc[nH]1)[C@@H](C)O)[C@@H](C)O)C(C)C)C(=O)N[C@@H](C)C(=O)N[C@@H](Cc1c[nH]c2ccccc12)C(=O)N[C@@H](CC(C)C)C(=O)N[C@H](C(=O)N[C@@H](CCCNC(=N)N)C(=O)NCC(=O)N[C@@H](CCCNC(=N)N)C(=O)NCC(=O)O)C(C)C", "note": "[Semaglutide, semaglutide, reference compound]", "values": [
      {"measurement": "published bioavailability (%F) in dogs", "setting": "[1]", "value": 1.22, "unit": "%"},
      {"measurement": "time to complete degradation in FaSSIF/pancreatin", "setting": "FaSSIF/pancreatin", "value": "less than 20 min"},
      {"measurement": "peptide bound to plasma proteins, human", "setting": "human plasma protein", "value": "over 97%"},
      {"measurement": "mean bioavailability (%F)", "setting": "[2]", "value": 0.08, "unit": "%"},
      {"measurement": "peptide bound to plasma proteins, dog", "setting": "dog plasma protein; EScalate equilibrium shift assay", "value": "over 97%"},
      {"measurement": "Fraction unbound peptide (%), dog", "setting": "dog plasma protein; EScalate equilibrium shift, five dilutions of plasma in PBS, 1 h at room temperature, HPLC-QTOF MS", "value": 0.37, "unit": "%"},
      {"measurement": "peptide bound to plasma proteins, rat", "setting": "rat plasma protein", "value": "over 97%"},
      {"measurement": "AUC0-inf", "setting": "[3]; n = 9", "value": "1,440 (45.8) ng·h/mL"},
      {"measurement": "F (bioavailability, systemic fraction)", "setting": "[3]; n = 9", "value": "0.08 (45.8) %"},
      {"measurement": "F (bioavailability, systemic fraction)", "setting": "[3]; n = 9, listed as semaglutide", "value": 0.08, "unit": "%"},
      {"measurement": "t½", "setting": "[3]; plasma, LC/MS, n = 9", "value": "60.5 (13.6) hours"},
      {"measurement": "bioavailability of oral formulation with SNAC", "setting": "[4]", "value": "0.4–1%"},
      {"measurement": "peptide bound to plasma proteins, monkey", "setting": "monkey plasma protein", "value": "over 97%"}
    ]}
  ]
}
